pIC50: −log10 of the molar value. Active and inactive are the calls of the source. How the calls were made is not given here.
Tested on: RKO cells viability, CellTiter-Glo ATP luminescence
Assay: RKO cell viability reduction, dose response, CellTiter-Glo luminescence (AID 1117322)

Row | SMILES | IC50 | pIC50
1 | O=C(O)C1(C(=O)O)CCC1.[NH2-].[NH2-].[Pt+2] | > 20 µM (inactive) | –
2 | OCCN1CCN(CC/C=C2/c3ccccc3Sc3ccc(C(F)(F)F)cc32)CC1 | – | 6.50
3 | CC(C)n1c(/C=C/[C@@H](O)C[C@@H](O)CC(=O)O)c(-c2ccc(F)cc2)c2ccccc21 | 19.2 µM (inactive) | –
4 | O=C1[O][Bi][O]c2ccccc21 | > 20 µM (inactive) | –
5 | O=Cc1ccc(O)c(O)c1O | 6.23 µM (inactive) | –
6 | CC(=O)[O][Hg][c]1ccccc1 | – | 5.92
7 | CCCCCCCCCCCCCC[N+](C)(C)C | – | 6.83

Source: PubChem BioAssay AID1117322
